The source made the active and inactive calls. The calls are words filed in the database; no cut-off is given here.
Experiments:
[1] = Metabolic stability in mouse liver microsome assessed as extraction ratio; format: ADME; conditions: liver microsomes
[2] = cells; conditions: Homo sapiens, HeLa
[3] = in vitro; conditions: human, liver microsomes
Description: Metabolic stability in human liver microsome assessed as extraction ratio

[4] = molecular target: Tyrosine-protein kinase ABL1 (Homo sapiens, UniProt P00519); experiment: Inhibition of Abl
[5] = molecular target: RAF proto-oncogene serine/threonine-protein kinase (Homo sapiens, UniProt P04049); experiment: Inhibition of cRaf
[6] = molecular target: Insulin receptor (Homo sapiens, UniProt P06213); experiment: Inhibition of IR
Chain of Insulin receptor (P06213 28-758 limits assumed): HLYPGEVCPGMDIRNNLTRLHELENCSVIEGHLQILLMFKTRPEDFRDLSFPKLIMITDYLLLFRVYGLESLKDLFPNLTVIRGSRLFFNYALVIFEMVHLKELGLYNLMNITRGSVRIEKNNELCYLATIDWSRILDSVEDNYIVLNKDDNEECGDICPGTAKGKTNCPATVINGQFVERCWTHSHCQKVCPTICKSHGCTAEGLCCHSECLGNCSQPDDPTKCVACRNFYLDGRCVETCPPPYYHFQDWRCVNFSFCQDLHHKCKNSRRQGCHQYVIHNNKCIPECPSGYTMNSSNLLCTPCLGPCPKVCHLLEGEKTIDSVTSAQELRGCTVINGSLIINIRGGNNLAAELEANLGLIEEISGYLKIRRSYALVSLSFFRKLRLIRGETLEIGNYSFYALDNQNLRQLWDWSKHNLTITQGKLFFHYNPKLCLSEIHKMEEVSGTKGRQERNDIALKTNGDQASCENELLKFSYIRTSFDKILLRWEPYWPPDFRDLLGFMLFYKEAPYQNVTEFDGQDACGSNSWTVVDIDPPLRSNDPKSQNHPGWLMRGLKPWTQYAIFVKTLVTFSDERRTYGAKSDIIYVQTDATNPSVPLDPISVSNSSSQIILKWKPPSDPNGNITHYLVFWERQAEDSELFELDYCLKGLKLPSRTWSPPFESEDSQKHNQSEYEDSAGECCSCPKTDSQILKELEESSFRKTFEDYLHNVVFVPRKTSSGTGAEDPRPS
Chain of Insulin receptor (P06213 763-1382 limits assumed): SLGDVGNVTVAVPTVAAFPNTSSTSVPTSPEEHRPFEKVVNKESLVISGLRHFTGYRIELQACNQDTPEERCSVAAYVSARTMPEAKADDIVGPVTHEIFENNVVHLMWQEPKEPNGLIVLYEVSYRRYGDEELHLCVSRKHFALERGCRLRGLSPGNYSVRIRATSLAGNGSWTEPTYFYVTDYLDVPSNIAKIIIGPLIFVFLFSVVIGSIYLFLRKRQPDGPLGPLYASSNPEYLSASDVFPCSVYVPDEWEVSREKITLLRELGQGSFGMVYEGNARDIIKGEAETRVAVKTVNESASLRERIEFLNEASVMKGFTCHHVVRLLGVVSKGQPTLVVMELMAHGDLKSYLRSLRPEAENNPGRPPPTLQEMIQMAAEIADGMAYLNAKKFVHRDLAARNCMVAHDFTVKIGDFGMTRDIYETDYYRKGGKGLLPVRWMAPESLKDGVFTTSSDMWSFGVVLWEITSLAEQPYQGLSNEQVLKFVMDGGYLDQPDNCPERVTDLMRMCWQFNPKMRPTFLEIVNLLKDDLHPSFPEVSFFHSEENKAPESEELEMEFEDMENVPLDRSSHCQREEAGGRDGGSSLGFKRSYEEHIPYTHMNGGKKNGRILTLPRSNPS

[7] = molecular target: T1, 3-phosphoinositide-dependent protein kinase 1 (Homo sapiens, UniProt O15530); experiment: Inhibition of PDK1
T1 sequence (O15530 whole entry): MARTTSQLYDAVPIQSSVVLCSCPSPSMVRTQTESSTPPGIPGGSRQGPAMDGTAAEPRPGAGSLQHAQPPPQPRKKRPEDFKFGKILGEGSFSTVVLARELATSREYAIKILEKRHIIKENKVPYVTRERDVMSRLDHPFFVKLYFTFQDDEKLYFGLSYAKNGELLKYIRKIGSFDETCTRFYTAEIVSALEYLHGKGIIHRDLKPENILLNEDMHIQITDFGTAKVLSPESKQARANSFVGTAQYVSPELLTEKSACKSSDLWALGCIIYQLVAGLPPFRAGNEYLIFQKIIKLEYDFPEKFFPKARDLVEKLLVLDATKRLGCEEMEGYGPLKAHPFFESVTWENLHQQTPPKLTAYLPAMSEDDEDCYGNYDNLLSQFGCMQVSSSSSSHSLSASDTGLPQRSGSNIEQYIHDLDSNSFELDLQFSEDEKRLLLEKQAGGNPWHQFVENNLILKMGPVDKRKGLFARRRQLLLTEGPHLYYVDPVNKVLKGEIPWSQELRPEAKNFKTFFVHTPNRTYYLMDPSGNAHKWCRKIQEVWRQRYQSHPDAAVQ

[8] = molecular target: Phosphatidylinositol 4,5-bisphosphate 3-kinase catalytic subunit gamma isoform (Homo sapiens, UniProt P48736); experiment: Inhibition of PI3Kgamma
[9] = molecular target: Proto-oncogene tyrosine-protein kinase Src (Homo sapiens, UniProt P12931); experiment: Inhibition of Src
Chain of Proto-oncogene tyrosine-protein kinase Src (P12931 2-536 limits assumed): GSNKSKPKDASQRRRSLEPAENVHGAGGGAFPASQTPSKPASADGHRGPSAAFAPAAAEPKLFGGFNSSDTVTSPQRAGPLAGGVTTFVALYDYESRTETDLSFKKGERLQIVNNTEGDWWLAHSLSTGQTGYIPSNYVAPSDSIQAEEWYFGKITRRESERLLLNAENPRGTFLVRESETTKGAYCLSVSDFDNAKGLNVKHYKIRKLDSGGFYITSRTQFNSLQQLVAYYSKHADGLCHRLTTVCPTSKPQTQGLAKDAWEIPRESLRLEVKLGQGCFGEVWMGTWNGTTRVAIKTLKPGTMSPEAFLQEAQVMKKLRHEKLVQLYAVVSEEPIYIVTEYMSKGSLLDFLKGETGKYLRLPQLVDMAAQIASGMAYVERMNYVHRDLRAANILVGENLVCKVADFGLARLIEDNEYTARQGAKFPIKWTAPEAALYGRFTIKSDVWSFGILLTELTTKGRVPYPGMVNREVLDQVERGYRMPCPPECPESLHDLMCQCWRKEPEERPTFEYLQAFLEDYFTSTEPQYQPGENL

[10] = Inhibition of mTORC2 dependent P4E-BP1 T37/46 phosphorylation in human MDA-MB-231 cells; format: cell-based
[11] = Inhibition of mTORC2 dependent pAkT S473 phosphorylation in human BT-20 cells; format: cell-based
[12] = test system: MDA-MB-231; experiment: Antiproliferative activity against human MDA-MB-231 cells; format: functional, cell-based
[13] = Permeability of the compound by PAMPA method; format: ADME; conditions: read-out: permeability
[14] = Aqueous solubility of the compound at pH 7.4; format: physicochemical
[15] = Clearance in mouse at 1 mg/kg, iv; format: ADME, organism-based; design: dose 1 mg/kg, route intravenous; conditions: in vivo
[16] = Half life in mouse at 1 mg/kg, iv; format: ADME, organism-based; design: dose 1 mg/kg, route intravenous; conditions: in vivo
[17] = AUC (0 to infinity) in mouse at 1 mg/kg, iv; format: ADME, organism-based; design: time infinity, dose 1 mg/kg, route intravenous; conditions: plasma
[18] = Volume of distribution at steady-state in mouse at 1 mg/kg, iv; format: ADME, organism-based; design: dose 1 mg/kg, route intravenous; conditions: in vivo, read-out: Vdss
[19] = Cmax in mouse at 20 mg/kg, po; format: ADME, organism-based; design: dose 20 mg/kg, route oral; conditions: in vivo
[20] = AUC (0 to infinity) in mouse at 20 mg/kg, po; format: ADME, organism-based; design: time infinity, dose 20 mg/kg, route oral; conditions: plasma
[21] = Bioavailability in mouse at 20 mg/kg, po; format: ADME, organism-based; conditions: in vivo
[22] = Plasma protein binding in mouse; format: ADME, cell-free; conditions: read-out: PPB (converted)
[23] = test system: Mus musculus; experiment: […] mouse bearing human MDA-MB-231 cells assessed as inhibition of 4E-BP1 T37/46 phosphorylation at 100 mg/kg, po after 4 hrs; format: functional, organism-based; design: dose 100 mg/kg
[24] = test system: Mus musculus; experiment: […] mouse bearing human MDA-MB-231 cells assessed as inhibition of 4E-BP1 T37/46 phosphorylation at 100 mg/kg, po after 8 hrs; format: functional, organism-based; design: dose 100 mg/kg
[25] = molecular target: Insulin-like growth factor 1 receptor (Homo sapiens, UniProt P08069); experiment: Inhibition of IGF-1R
Chain of Insulin-like growth factor 1 receptor (P08069 31-736 limits assumed): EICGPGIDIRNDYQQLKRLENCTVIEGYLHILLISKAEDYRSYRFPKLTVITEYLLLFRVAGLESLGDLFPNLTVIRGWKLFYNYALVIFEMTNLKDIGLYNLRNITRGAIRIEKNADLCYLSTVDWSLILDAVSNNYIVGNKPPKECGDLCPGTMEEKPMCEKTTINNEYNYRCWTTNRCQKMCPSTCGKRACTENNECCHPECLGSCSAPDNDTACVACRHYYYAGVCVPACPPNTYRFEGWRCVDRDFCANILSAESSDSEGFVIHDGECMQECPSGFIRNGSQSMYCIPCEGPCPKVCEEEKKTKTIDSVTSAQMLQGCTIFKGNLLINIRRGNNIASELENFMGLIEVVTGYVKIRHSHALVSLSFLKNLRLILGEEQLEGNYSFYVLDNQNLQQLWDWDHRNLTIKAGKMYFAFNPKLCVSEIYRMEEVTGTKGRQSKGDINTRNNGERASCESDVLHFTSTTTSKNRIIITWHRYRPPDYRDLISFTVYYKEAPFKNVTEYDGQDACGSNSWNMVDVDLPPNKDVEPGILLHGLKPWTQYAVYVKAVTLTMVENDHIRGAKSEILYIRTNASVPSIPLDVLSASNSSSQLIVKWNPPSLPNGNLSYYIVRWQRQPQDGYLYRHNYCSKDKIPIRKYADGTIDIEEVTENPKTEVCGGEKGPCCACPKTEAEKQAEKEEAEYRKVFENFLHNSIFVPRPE
Chain of Insulin-like growth factor 1 receptor (P08069 741-1367 limits assumed): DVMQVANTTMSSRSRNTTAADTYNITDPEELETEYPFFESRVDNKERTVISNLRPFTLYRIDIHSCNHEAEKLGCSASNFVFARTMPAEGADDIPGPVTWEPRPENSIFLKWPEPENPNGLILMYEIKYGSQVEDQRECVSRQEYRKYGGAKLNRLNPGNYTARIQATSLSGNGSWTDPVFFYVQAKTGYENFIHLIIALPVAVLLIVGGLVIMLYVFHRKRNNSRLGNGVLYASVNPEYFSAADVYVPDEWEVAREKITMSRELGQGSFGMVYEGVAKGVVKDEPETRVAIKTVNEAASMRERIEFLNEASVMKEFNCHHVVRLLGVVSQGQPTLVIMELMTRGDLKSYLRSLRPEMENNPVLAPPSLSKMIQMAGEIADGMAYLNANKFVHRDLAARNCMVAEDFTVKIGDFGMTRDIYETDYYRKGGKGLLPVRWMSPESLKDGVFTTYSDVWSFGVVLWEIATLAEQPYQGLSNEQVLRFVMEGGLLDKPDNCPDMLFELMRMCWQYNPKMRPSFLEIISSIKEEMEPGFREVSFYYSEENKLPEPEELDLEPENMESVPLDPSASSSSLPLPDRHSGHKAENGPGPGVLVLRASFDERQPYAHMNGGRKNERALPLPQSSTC

[26] = molecular target: Dual specificity mitogen-activated protein kinase kinase 1 (Homo sapiens, UniProt Q02750); experiment: Inhibition of MEK1
Chain of Dual specificity mitogen-activated protein kinase kinase 1 (Q02750 whole entry): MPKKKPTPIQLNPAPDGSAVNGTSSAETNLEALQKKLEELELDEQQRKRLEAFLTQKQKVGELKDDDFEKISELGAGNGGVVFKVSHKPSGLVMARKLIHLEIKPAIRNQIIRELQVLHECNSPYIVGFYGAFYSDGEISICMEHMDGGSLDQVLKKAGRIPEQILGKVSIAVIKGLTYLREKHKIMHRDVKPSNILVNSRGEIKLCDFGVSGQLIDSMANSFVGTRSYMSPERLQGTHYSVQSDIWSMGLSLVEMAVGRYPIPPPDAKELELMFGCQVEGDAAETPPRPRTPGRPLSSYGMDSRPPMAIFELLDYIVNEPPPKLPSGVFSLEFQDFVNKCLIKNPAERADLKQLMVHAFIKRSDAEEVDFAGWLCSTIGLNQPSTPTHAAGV

Chain of Tyrosine-protein kinase ABL1 (P00519 whole entry): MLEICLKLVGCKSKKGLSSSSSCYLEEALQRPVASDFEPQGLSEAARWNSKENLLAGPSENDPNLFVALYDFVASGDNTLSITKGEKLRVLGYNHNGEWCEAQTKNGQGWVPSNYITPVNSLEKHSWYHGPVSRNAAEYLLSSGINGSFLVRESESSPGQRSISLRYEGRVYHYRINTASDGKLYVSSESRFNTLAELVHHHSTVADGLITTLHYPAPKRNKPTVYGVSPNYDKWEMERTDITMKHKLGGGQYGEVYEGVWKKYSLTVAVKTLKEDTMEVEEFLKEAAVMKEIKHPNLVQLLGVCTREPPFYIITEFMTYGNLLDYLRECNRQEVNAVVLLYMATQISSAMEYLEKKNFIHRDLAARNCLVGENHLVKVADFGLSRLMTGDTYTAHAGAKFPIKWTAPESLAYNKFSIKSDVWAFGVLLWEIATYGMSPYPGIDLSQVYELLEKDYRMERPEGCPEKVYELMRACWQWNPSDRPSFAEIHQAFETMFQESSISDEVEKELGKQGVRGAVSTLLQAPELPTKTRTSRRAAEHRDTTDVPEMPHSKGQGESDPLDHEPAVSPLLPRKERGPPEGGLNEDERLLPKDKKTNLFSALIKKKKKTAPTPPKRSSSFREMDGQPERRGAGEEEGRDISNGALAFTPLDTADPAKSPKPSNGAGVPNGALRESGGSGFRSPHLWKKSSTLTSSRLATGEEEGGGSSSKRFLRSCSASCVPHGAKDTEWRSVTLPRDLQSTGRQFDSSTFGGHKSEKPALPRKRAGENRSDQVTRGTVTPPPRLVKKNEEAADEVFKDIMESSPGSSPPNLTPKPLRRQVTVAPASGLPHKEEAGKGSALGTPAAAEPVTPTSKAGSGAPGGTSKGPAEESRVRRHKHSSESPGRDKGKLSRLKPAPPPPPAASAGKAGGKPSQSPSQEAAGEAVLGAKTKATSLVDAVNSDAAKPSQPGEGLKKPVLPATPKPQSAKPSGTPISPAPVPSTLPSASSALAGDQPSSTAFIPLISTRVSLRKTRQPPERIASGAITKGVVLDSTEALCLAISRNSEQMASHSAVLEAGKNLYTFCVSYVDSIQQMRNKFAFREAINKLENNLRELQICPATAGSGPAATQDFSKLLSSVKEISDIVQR

Question: With `Nc1nccn2c(C3CCNCC3)nc(-c3cc4ccccc4[nH]3)c12` as the compound, how does the hepatic extraction ratio [1] read?
Answer: Its hepatic extraction ratio is 0.64.

Question: And the IC50 [2]?
Answer: The IC50 was > 10000 nM.

Question: And the hepatic extraction ratio [3]?
Answer: Its hepatic extraction ratio is 0.18.

Question: With `Nc1nccn2c(C3CCC3)nc(-c3cnc4ccccc4c3)c12` as the compound, how does the IC50 [2] read?
Answer: Its IC50 is 2350 nM.

Question: For `Nc1nccn2c1c(-c1cc3ccccc3[nH]1)nc2[C@H]1C[C@@H](CO)C1`, which hepatic extraction ratio [1] is on record?
Answer: Its hepatic extraction ratio is 0.79.

Question: And the IC50 [2]?
Answer: The IC50 was 320 nM.

Question: What about the hepatic extraction ratio [3] of the same compound?
Answer: Its hepatic extraction ratio is 0.7.

Question: For `NC[C@H]1CC[C@H](c2nc(-c3cc4ccccc4[nH]3)c3c(N)nccn32)CC1`, which hepatic extraction ratio [1] is on record?
Answer: The hepatic extraction ratio was 0.28.

Question: And the IC50 [2]?
Answer: The IC50 was 1000 nM.

Question: And the hepatic extraction ratio [3]?
Answer: The hepatic extraction ratio was 0.34.

Question: Which IC50 [2] does the source give for `Nc1nccn2c(C3CCC3)nc(-c3ccc4occc4c3)c12` here?
Answer: Its IC50 is > 10000 nM.

Question: Which results are given for `Nc1nccn2c1c(-c1cc3ccccc3[nH]1)nc2[C@H]1CC[C@H](CNC(=O)c2ccoc2)CC1`?
Answer: hepatic extraction ratio [1]: 0.76; IC50 [2]: 90 nM; hepatic extraction ratio [3]: 0.78

Question: For `Nc1nccn2c(C3CCC3)nc(-c3ccc4nccnc4c3)c12`, which IC50 [2] is on record?
Answer: Its IC50 is 2600 nM.

Question: For `Nc1nccn2c(C3CCC3)nc(-c3cccc(O)c3)c12`, which IC50 [2] is on record?
Answer: The IC50 was 1970 nM.

Question: What does the source list for `Nc1nccn2c1c(-c1cc3ccccc3[nH]1)nc2[C@H]1C[C@@H](O)C1`?
Answer: hepatic extraction ratio [1]: 0.6; IC50 [2]: 370 nM; hepatic extraction ratio [3]: 0.74

Question: With `CN1CCN(C(=O)N2CCC(c3nc(-c4cc5ccccc5[nH]4)c4c(N)nccn34)CC2)CC1` as the compound, how does the IC50 [2] read?
Answer: The IC50 was 1370 nM.

Question: Which results are given for `Nc1nccn2c1c(-c1cc3ccccc3[nH]1)nc2[C@H]1CC[C@H](CO)CC1`?
Answer: hepatic extraction ratio [1]: 0.67; IC50 [2]: 220 nM; hepatic extraction ratio [3]: 0.74

Question: Which IC50 [2] does the source give for `Nc1nccn2c(C3CCC3)nc(-c3cccc4ccccc34)c12` here?
Answer: Its IC50 is > 10000 nM.

Question: For `CC(=O)NC[C@H]1CC[C@H](c2nc(-c3cc4ccccc4[nH]3)c3c(N)nccn32)CC1`, which IC50 [4] is on record?
Answer: The IC50 was 1960 nM.

Question: What about the IC50 [5] of the same compound?
Answer: The IC50 was 180 nM.

Question: What about the IC50 [6] of the same compound?
Answer: Its IC50 is 22.6 µM.

Question: And the IC50 [7]?
Answer: Its IC50 is 11.2 µM.

Question: And the IC50 [8]?
Answer: The IC50 was > 30 µM.

Question: And the IC50 [9]?
Answer: Its IC50 is 5.3 µM.

Question: And the IC50 [10]?
Answer: Its IC50 is 7.4 µM.

Question: And the IC50 [11]?
Answer: Its IC50 is 1260 nM.

Question: And the IC50 [12]?
Answer: Its IC50 is 7.4 µM.

Question: And the Papp [13]?
Answer: The Papp was > 25 ×10⁻⁶ cm/s.

Question: What about the solubility [14] of the same compound?
Answer: The solubility was > 100 µM.

Question: And the clearance [15]?
Answer: Its clearance is 2 mL/min/kg.

Question: And the half-life [16]?
Answer: Its half-life is 96 min.

Question: And the AUC(0-inf) [17]?
Answer: Its AUC(0-inf) is 6880 ng·h/mL.

Question: What about the Vd [18] of the same compound?
Answer: Its Vd is 0.2 L/kg.

Question: What about the Cmax [19] of the same compound?
Answer: Its Cmax is 30.6 µM.

Question: And the AUC(0-inf) [20]?
Answer: Its AUC(0-inf) is 73800 ng·h/mL.

Question: What about the bioavailability [21] of the same compound?
Answer: Its bioavailability is 54%.

Question: What about the fraction unbound [22] of the same compound?
Answer: Its fraction unbound is 0.097.

Question: And the Activity [23]?
Answer: Its Activity is “Active”.

Question: What about the Activity [24] of the same compound?
Answer: The Activity was “Active”.

Question: What about the IC50 [25] of the same compound?
Answer: The IC50 was 2720 nM.

Question: What about the IC50 [26] of the same compound?
Answer: The IC50 was 960 nM.

Question: What about the IC50 [2] of the same compound?
Answer: Its IC50 is 210 nM.

Question: Which IC50 [2] does the source give for `Nc1nccn2c(C3CCC3)nc(-c3ccc4[nH]ccc4c3)c12` here?
Answer: The IC50 was 2480 nM.

Question: With `CN1CCN([C@H]2C[C@@H](c3nc(-c4cc5ccccc5[nH]4)c4c(N)nccn43)C2)CC1` as the compound, how does the hepatic extraction ratio [1] read?
Answer: Its hepatic extraction ratio is 0.2.

Question: And the IC50 [2]?
Answer: Its IC50 is 4000 nM.

Question: And the hepatic extraction ratio [3]?
Answer: Its hepatic extraction ratio is 0.44.

Question: With `CC(=O)N1CCC(c2nc(-c3cc4ccccc4[nH]3)c3c(N)nccn23)CC1` as the compound, how does the hepatic extraction ratio [1] read?
Answer: The hepatic extraction ratio was 0.43.

Question: And the IC50 [2]?
Answer: Its IC50 is 690 nM.

Question: And the hepatic extraction ratio [3]?
Answer: Its hepatic extraction ratio is 0.44.

Question: Which hepatic extraction ratio [1] does the source give for `CC(=O)N1CCN([C@H]2C[C@@H](c3nc(-c4cc5ccccc5[nH]4)c4c(N)nccn43)C2)CC1` here?
Answer: The hepatic extraction ratio was 0.59.

Question: What about the IC50 [2] of the same compound?
Answer: The IC50 was 350 nM.

Question: What about the hepatic extraction ratio [3] of the same compound?
Answer: The hepatic extraction ratio was 0.58.

From ChEMBL document CHEMBL1759853, “Imidazo[1,5-a]pyrazines: orally efficacious inhibitors of mTORC1 and mTORC2” (Bioorg Med Chem Lett, 2011)
